The text below walks through data of patent US20050169944A1, “Increasing tumor oxygen content by administration of stressed cells” (priority 2002, published 2005).

Series [1] in a line: Tolerability of intravenous ozone in tumor bearing mice. The format is in vivo, C3H mice. To be noted: 50 μl of 5 or 20 μg of ozone per ml of oxygen, tail vein, 5 daily injections, with melphalan. On the procedure: In order to stress cells in vivo, ozone at 5 μg per ml of oxygen, or 20 μg per ml of oxygen was injected directly into the tail vein of tumor bearing mice. Such injections are performed by filling a 1 cc syringe with the indicated concentration of ozone in medical grade oxygen. The gas is slowly injected into the tail vein so not to induce embolism. Due to the high solubility of oxygen and ozone in blood, embolism formation is not usually a problem.
8 week old male C3H mice were inoculated with 2×10^6 FSaIIC murine fibrosarcoma cells in the hind limb. When tumors reached a volume of 50 mm^3, animal were divided into 4 groups of 10 mice. Group I was untreated, Group II was administered a dose of 10 mg/kg melphalan by intraperitoneal injection. Group III was administered melphalan together with 50 μl of 5 μg of ozone per ml of oxygen by tail vein injection. Group IV was administered melphalan with 50 μl of 20 μg of ozone per ml of oxygen by tail vein injection. Following the initial melphalan injection, animals in Groups III and IV continued receiving intravenous injections of 50 μl of 5 μg of ozone per ml of oxygen, or 50 μl of 20 μg of ozone per ml of oxygen, respectively for 4 days, one injection per day. All animals were observed until tumors attained a volume of 500 mm^3. The delay in tumor time to achieve […] volume is illustrated in FIG. 8.

For series [2], the system named is FSaIIC murine fibrosarcoma. Briefly: Tumor growth delay with melphalan (time to 500 mm^3). The following applies: melphalan 10 mg/kg i.p. plus 50 μl of 5 or 20 μg of ozone per ml of oxygen by tail vein injection, then 4 days; FIG. 8. The format is in vivo, C3H mice. As for the experimental part:
8 week old male C3H mice were inoculated with 2×10^6 FSaIIC murine fibrosarcoma cells in the hind limb. When tumors reached a volume of 50 mm^3, animal were divided into 4 groups of 10 mice. Group I was untreated, Group II was administered a dose of 10 mg/kg melphalan by intraperitoneal injection. Group III was administered melphalan together with 50 μl of untreated syngeneic blood injected intramuscularly in the non-tumor bearing hind limb. Group IV was administered melphalan with 50 μl of syngeneic blood treated with 20 μl ozone/ml of oxygen. Following the initial melphalan injection, animals in Groups III and IV continued receiving intramuscular injections of 50 μl of untreated syngeneic blood, or 50 μl of syngeneic blood treated with 20 μl ozone/ml of oxygen, respectively for 4 days, one injection per day. All animals were observed until tumors attained a volume of 500 mm^3. The delay in tumor time to achieve 500 mm^3 volume is illustrated in FIG. 4.
8 week old male C3H mice were inoculated with 2×10^6 FSaIIC murine fibrosarcoma cells in the hind limb. When tumors reached a volume of 50 mm^3, animal were divided into 4 groups of 10 mice. Group I was untreated, Group II was administered a dose of 10 mg/kg melphalan by intraperitoneal injection. Group HI was administered melphalan together with an intramuscular injection of 1×10^6 syngeneic untreated mononuclear cells. […]

In the case of `O=[O+][O-]` [intravenous ozone, ozone], in series [1], the tolerability entry is given as “well tolerated”. Also, in series [2], the “delay in time to achieve 500 mm^3 tumor volume with melphalan” value is “increased the tumor inhibitory effects of melphalan”.
